This note sets out measurements from patent publication US12202827B2, “Aldosterone synthase inhibitor” (DAMIAN PHARMA AG, priority 2016, dated 2025).

The nature of data set [1]: Solid state characterization of salts obtained as solids. The class given is physicochemical.
For data set [2] the following is noted: up to 225° C., TGA/DSC. The procedure:
The thermogravimetric analysis and differential scanning calorimetry (TGA/DSC) studies were performed using a Mettler Toledo TGA/DSC1 STARe System with a 34-position auto sampler. The samples were made using Al crucibles (40 μL; pierced). Typically 5-10 mg of sample was loaded into a pre-weighed Al crucible and was kept at 30° C. for 5 minutes, after which it was heated at 10° C./min from 30° C. to 350° C. A nitrogen purge of 40 ml/min was maintained over the sample. The software used for data collection and evaluation was STARe Software v12.10 build 5937. No corrections were applied to the thermogram.

As for `N#Cc1ccc([C@H]2CCCc3cncn32)cc1.O=P(O)(O)O`, in data set [1], the Crystallinity entry was “good”, the “Hygroscopicity (DVS)” value was “low”, the “Polymorph tendency (XRPD)” value is “Not observed” and the “Solid phase transition (XRPD)” value is “Not observed”. In data set [1], the Solvation entry is given as “anhydrous” and the Water solubility result is “good”. Besides, the “Mass loss upon heating” value in data set [2] was determined as 1.4%.
